Reference: patent publication US7273848B2, “Apolipoprotein A-I agonists and their use to treat dyslipidemic disorders” (priority 1997, dated 2007)
Non-standard residues stand in square brackets, D forms with d. Residues, ends and D or L forms follow the SMILES beside them. Aib = CC(C)(N)C(=O)O

Target: T1, LCAT (purified from human plasma) (Homo sapiens, UniProt P04180)
T1 construct: from tissue; host or cells: human plasma
T1 sequence (P04180 25-440): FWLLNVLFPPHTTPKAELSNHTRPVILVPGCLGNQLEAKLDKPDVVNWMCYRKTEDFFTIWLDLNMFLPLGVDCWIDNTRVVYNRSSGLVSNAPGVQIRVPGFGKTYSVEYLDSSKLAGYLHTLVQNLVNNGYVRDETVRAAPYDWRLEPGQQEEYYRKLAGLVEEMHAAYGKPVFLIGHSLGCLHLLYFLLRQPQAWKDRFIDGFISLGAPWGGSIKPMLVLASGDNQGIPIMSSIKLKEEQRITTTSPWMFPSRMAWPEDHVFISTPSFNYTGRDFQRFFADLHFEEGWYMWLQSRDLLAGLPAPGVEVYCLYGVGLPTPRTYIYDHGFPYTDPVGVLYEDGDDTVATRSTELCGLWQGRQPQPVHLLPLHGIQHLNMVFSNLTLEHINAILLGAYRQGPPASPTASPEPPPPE
Assay: LCAT activation assay
Assay type: biochemical
Conditions: LCAT activation as compared with native human ApoA-I (= 100%), equivalent masses
Procedure: The peptides synthesized as described in Section 6, supra, were analyzed in vitro for their ability to activate LCAT. In the LCAT assay, substrate vesicles (small unilamellar vesicles or “SUVs”) composed of egg phophatidylcholine (EPC) or 1-Palmitoyl-2-oleyl-phosphatidyl-choline (POPC) and radiolabelled cholesterol are preincubated with equivalent masses either of peptide or ApoA-I (isolated from human plasma). The reaction is initiated by addition of LCAT (purified from human plasma). Native ApoA-I, which was used as positive control, represents 100% activation activity. “Specific activity” (i.e., units of activity (LCAT activation)/unit of mass) of the peptides can be calculated as the concentration of peptide that achieves maximum LCAT activation. For example, a series of concentrations of the peptide (e.g., a limiting dilution) can be assayed to determine the “specific activity” for the peptide—the concentration which achieves maximal LCAT activation (i.e., percentage conversion of cholesterol to cholesterol ester) at a specific timepoint in the assay (e.g., 1 hr.). When plotting percentage conversion of cholesterol at, e.g., 1 hr., against the concentration of peptide used, the “specific activity” can be identified as the concentration of peptide that achieves a plateau on the plotted curve.
The vesicles used in the LCAT assay are SUVs composed of egg phosphatidylcholine (EPC) or 1-palmitoyl-2-oleyl-phosphatidylcholine (POPC) and cholesterol with a molar ratio of 20:1. To prepare a vesicle stock solution sufficient for 40 assays, 7.7 mg EPC (or 7.6 mg POPC; 10 μmol), 78 μg (0.2 μmol) 4-^14C-cholesterol, 116 μg cholesterol (0.3 μmol) are dissolved in 5 ml xylene and lyophilized. Thereafter 4 ml of assay buffer is added to the dry powder and sonicated under nitrogen atmosphere at 4° C. Sonication conditions: Branson 250 sonicator, 10 mm tip, 6×5 minutes; Assay buffer: 10 mM Tris, 0.14 M NaCl, 1 mM EDTA, pH 7.4). The sonicated mixture is centrifuged 6 times for 5 minutes each time at 14,000 rpm (16,000×g) to remove titanium particles. The resulting clear solution is used for the enzyme assay.
For the LCAT purification, dextran sulfate/Mg^2+ treatment of human plasma is used to obtain lipoprotein deficient serum (LPDS), which is sequentially chromatographed on Phenylsepharose, Affigelblue, ConcanavalinA sepharose and anti-ApoA-I affinity chromatography, as summarized for a representative purification in TABLE IX, below: […]

ACTIVITY (%) LCAT	SMILES
10%	CC(C)C[C@H](NC(=O)[C@H](C)NC(=O)[C@H](CCC(=O)O)NC(=O)[C@H](CC(C)C)NC(=O)C(C)(C)NC(=O)[C@H](CCC(=O)O)NC(=O)[C@H](CC(N)=O)NC(=O)[C@H](CC(C)C)NC(=O)[C@H](CCCCN)NC(=O)[C@H](CCC(=O)O)NC(=O)[C@H](CCCNC(=N)N)NC(=O)[C@H](Cc1ccccc1)NC(=O)[C@H](CCCCN)NC(=O)[C@H](CC(=O)O)NC(=O)[C@H](CC(C)C)NC(=O)[C@@H](NC(=O)[C@@H]1CCCN1)C(C)C)C(=O)N[C@@H](CCCCN)C(=O)N[C@@H](CCC(N)=O)C(=O)N[C@@H](CCCCN)C(=O)N[C@@H](CC(C)C)C(=O)N[C@@H](CCCCN)C(=O)O [compound 74, PVLDKFREKLNEXLEALKQKLK] (H-PVLDKFREKLNE[Aib]LEALKQKLK-OH)
9%	CC(C)C[C@H](NC(=O)[C@H](C)NC(=O)[C@H](CCC(=O)O)NC(=O)[C@H](CC(C)C)NC(=O)C(C)(C)NC(=O)[C@H](CCCCN)NC(=O)[C@H](CC(N)=O)NC(=O)[C@H](CC(C)C)NC(=O)[C@H](CCCCN)NC(=O)[C@H](CCC(=O)O)NC(=O)[C@H](CCCNC(=N)N)NC(=O)[C@H](Cc1ccccc1)NC(=O)[C@H](CCC(=O)O)NC(=O)[C@H](CC(=O)O)NC(=O)[C@H](CC(C)C)NC(=O)[C@@H](NC(=O)[C@@H]1CCCN1)C(C)C)C(=O)N[C@@H](CCCCN)C(=O)N[C@@H](CCC(N)=O)C(=O)N[C@@H](CCCCN)C(=O)N[C@@H](CC(C)C)C(=O)N[C@@H](CCCCN)C(=O)O [compound 77, PVLDEFREKLNKXLEALKQKLK] (H-PVLDEFREKLNK[Aib]LEALKQKLK-OH)
8%	CC(C)C[C@H](NC(=O)[C@H](C)NC(=O)[C@H](CCC(=O)O)NC(=O)[C@H](CC(C)C)NC(=O)C(C)(C)NC(=O)[C@H](CCC(=O)O)NC(=O)[C@H](CC(N)=O)NC(=O)[C@H](CC(C)C)NC(=O)[C@H](CCCCN)NC(=O)[C@H](CCC(=O)O)NC(=O)[C@H](CCCNC(=N)N)NC(=O)[C@H](Cc1ccccc1)NC(=O)[C@H](CCC(=O)O)NC(=O)[C@H](CC(=O)O)NC(=O)[C@@H](N)CC(C)C)C(=O)N[C@@H](CCCCN)C(=O)N[C@@H](CCC(N)=O)C(=O)N[C@@H](CCCCN)C(=O)N[C@@H](CC(C)C)C(=O)N[C@@H](CCCCN)C(=O)O [compound 82, ~~LDEFREKLNEXLEALKQKLK] (H-LDEFREKLNE[Aib]LEALKQKLK-OH)
6%	CC(C)C[C@H](NC(=O)[C@H](C)NC(=O)[C@H](CCC(=O)O)NC(=O)[C@H](CC(C)C)NC(=O)C(C)(C)NC(=O)[C@H](CCC(=O)O)NC(=O)[C@H](CC(N)=O)NC(=O)[C@H](CC(C)C)NC(=O)[C@H](CCCCN)NC(=O)[C@H](CCC(=O)O)NC(=O)[C@H](CCCNC(=N)N)NC(=O)[C@H](Cc1ccccc1)NC(=O)[C@H](CCC(=O)O)NC(=O)[C@@H](N)CC(=O)O)C(=O)N[C@@H](CCCCN)C(=O)N[C@@H](CCC(N)=O)C(=O)N[C@@H](CCCCN)C(=O)N[C@@H](CC(C)C)C(=O)N[C@@H](CCCCN)C(=O)O [compound 90, ~~~DEFREKLNEXLEALKQKLK] (H-DEFREKLNE[Aib]LEALKQKLK-OH)
5%	CC(C)C[C@H](NC(=O)[C@H](C)NC(=O)[C@H](CCCCN)NC(=O)[C@H](CC(C)C)NC(=O)C(C)(C)NC(=O)[C@H](CCC(=O)O)NC(=O)[C@H](CC(N)=O)NC(=O)[C@H](CC(C)C)NC(=O)[C@H](CCCCN)NC(=O)[C@H](CCC(=O)O)NC(=O)[C@H](CCCNC(=N)N)NC(=O)[C@H](Cc1ccccc1)NC(=O)[C@H](CCC(=O)O)NC(=O)[C@H](CC(=O)O)NC(=O)[C@H](CC(C)C)NC(=O)[C@@H](NC(=O)[C@@H]1CCCN1)C(C)C)C(=O)N[C@@H](CCCCN)C(=O)N[C@@H](CCC(N)=O)C(=O)N[C@@H](CCCCN)C(=O)N[C@@H](CC(C)C)C(=O)N[C@@H](CCCCN)C(=O)O [compound 93, PVLDEFREKLNEXLKALKQKLK] (H-PVLDEFREKLNE[Aib]LKALKQKLK-OH)

Further lines, the compound ahead of its results:

SMILES	ACTIVITY (%) LCAT
CC(C)C[C@H](NC(=O)[C@H](C)NC(=O)[C@H](CCC(=O)O)NC(=O)[C@H](CC(C)C)NC(=O)C(C)(C)NC(=O)[C@H](CCC(=O)O)NC(=O)[C@H](CC(N)=O)NC(=O)[C@H](CC(C)C)NC(=O)[C@H](CC(C)C)NC(=O)[C@H](CCC(=O)O)NC(=O)[C@H](CCCNC(=N)N)NC(=O)[C@H](Cc1ccccc1)NC(=O)[C@H](CCCCN)NC(=O)[C@H](CC(=O)O)NC(=O)[C@H](CC(C)C)NC(=O)[C@@H](NC(=O)[C@@H]1CCCN1)C(C)C)C(=O)N[C@@H](CCCCN)C(=O)N[C@@H](CCC(N)=O)C(=O)N[C@@H](CCCCN)C(=O)N[C@@H](CC(C)C)C(=O)N[C@@H](CCCCN)C(=O)O [compound 88, PVLDKFRELLNEXLEALKQKLK] (H-PVLDKFRELLNE[Aib]LEALKQKLK-OH)	7%
CC(C)C[C@H](NC(=O)[C@H](C)NC(=O)[C@H](Cc1c[nH]c2ccccc12)NC(=O)[C@H](CC(C)C)NC(=O)C(C)(C)NC(=O)[C@H](CCC(=O)O)NC(=O)[C@H](CC(N)=O)NC(=O)[C@H](CC(C)C)NC(=O)[C@H](CCCCN)NC(=O)[C@H](CCC(=O)O)NC(=O)[C@H](CCCNC(=N)N)NC(=O)[C@H](Cc1ccccc1)NC(=O)[C@H](CCC(=O)O)NC(=O)[C@H](CC(=O)O)NC(=O)[C@H](CC(C)C)NC(=O)[C@@H](NC(=O)[C@@H]1CCCN1)C(C)C)C(=O)N[C@@H](CCCCN)C(=O)N[C@@H](CCC(N)=O)C(=O)N[C@@H](CCCCN)C(=O)N[C@@H](CC(C)C)C(=O)N[C@@H](CCCCN)C(=O)O [compound 89, PVLDEFREKLNEXLWALKQKLK] (H-PVLDEFREKLNE[Aib]LWALKQKLK-OH)	6%
CC(C)C[C@H](NC(=O)[C@H](C)NC(=O)[C@H](CCC(=O)O)NC(=O)[C@H](CC(C)C)NC(=O)C(C)(C)NC(=O)[C@H](CCC(=O)O)NC(=O)[C@H](CC(N)=O)NC(=O)[C@H](Cc1ccc(O)cc1)NC(=O)[C@H](CC(C)C)NC(=O)[C@H](CCC(=O)O)NC(=O)[C@H](CCCNC(=N)N)NC(=O)[C@H](Cc1ccccc1)NC(=O)[C@H](CCC(=O)O)NC(=O)[C@H](CC(=O)O)NC(=O)[C@H](CC(C)C)NC(=O)[C@@H](NC(=O)[C@@H]1CCCN1)C(C)C)C(=O)N[C@@H](CCCCN)C(=O)N[C@@H](CCC(N)=O)C(=O)N[C@@H](CCCCN)C(=O)N[C@@H](CC(C)C)C(=O)N[C@@H](CCCCN)C(=O)O [compound 92, PVLDEFRELYNEXLEALKQKLK] (H-PVLDEFRELYNE[Aib]LEALKQKLK-OH)	5%
CC(C)C[C@H](NC(=O)[C@H](C)NC(=O)[C@H](CCC(=O)O)NC(=O)[C@H](CC(C)C)NC(=O)C(C)(C)NC(=O)[C@H](CC(C)C)NC(=O)[C@H](CC(N)=O)NC(=O)[C@H](CC(C)C)NC(=O)[C@H](CC(C)C)NC(=O)[C@H](CCC(=O)O)NC(=O)[C@H](CCCNC(=N)N)NC(=O)[C@H](Cc1ccccc1)NC(=O)[C@H](CC(C)C)NC(=O)[C@H](CC(=O)O)NC(=O)[C@H](CC(C)C)NC(=O)[C@@H](NC(=O)[C@@H]1CCCN1)C(C)C)C(=O)N[C@@H](CCCCN)C(=O)N[C@@H](CCC(N)=O)C(=O)N[C@@H](CCCCN)C(=O)N[C@@H](CC(C)C)C(=O)N[C@@H](CCCCN)C(=O)O [compound 95, PVLDLFRELLNLXLEALKQKLK] (H-PVLDLFRELLNL[Aib]LEALKQKLK-OH)	5%
CC(C)C[C@H](NC(=O)[C@H](C)NC(=O)[C@H](CCC(=O)O)NC(=O)[C@H](CC(C)C)NC(=O)C(C)(C)NC(=O)[C@H](Cc1c[nH]c2ccccc12)NC(=O)[C@H](CC(N)=O)NC(=O)[C@H](CC(C)C)NC(=O)[C@H](CC(C)C)NC(=O)[C@H](CCC(=O)O)NC(=O)[C@H](CCCNC(=N)N)NC(=O)[C@H](Cc1ccccc1)NC(=O)[C@H](CC(C)C)NC(=O)[C@H](CC(=O)O)NC(=O)[C@H](CC(C)C)NC(=O)[C@@H](NC(=O)[C@@H]1CCCN1)C(C)C)C(=O)N[C@@H](CCCCN)C(=O)N[C@@H](CCC(N)=O)C(=O)N[C@@H](CCCCN)C(=O)N[C@@H](CC(C)C)C(=O)N[C@@H](CCCCN)C(=O)O [compound 101, PVLDLFRELLNWXLEALKQKLK] (H-PVLDLFRELLNW[Aib]LEALKQKLK-OH)	2%
